Source: patent US20240051946A1, “TARGETED PROTEIN DEGRADATION OF PARP14 FOR USE IN THERAPY” (Ribon Therapeutics, Inc., priority 2022, published 2024)
Structures can show the parent of a compound that is named as a salt.

target: T1, PARP14 (Homo sapiens, UniProt Q460N5); assay: HiBiT assay for the degradation of PARP14 (HiBiT tagged PARP14 in LgBiT expressing Jurkat cells); type: cell-based; conditions: Assay B, 37° C. for 2 or 24 hours, luminescence, read-out: DC50
T1 construct: engineered to contain a HiBiT tag on both alleles of the PARP14 gene; endogenous in cells; host or cells: Jurkat cells stably expressing LgBiT (Promega), with CRISPR/Cas9 knock-in of HiBiT at the PARP14 locus
Protocol: Jurkat cells stably transfected with LgBiT (Promega) were engineered to contain a HiBiT tag on both alleles of the PARP14 gene (Genbank Accession Number: NM_017554) via CRISPR/Cas9 editing. The HiBiT tag is an 11 amino acid tag created by Promega that associates with LgBiT protein to form the NanoLuc® tag on the C-terminus of PARP14. Clones were isolated and confirmed for the HiBiT tag via Sanger sequencing.
Degradation of PARP14 protein was assessed by measuring the luminescence of the HiBiT tag associating with the LgBiT protein as a proxy for the PARP14 protein. Jurkat cells were diluted to 250,000 cells per mL and then added to assay plate (Corning 3574) using a Multidrop (Thermo Fisher) to add 20 μL per well of the 384 well plate, resulting in 5,000 cells per well. 20 nL of a dose response curve diluted in DMSO of each test compound was added to the cell plate using a Mosquito (TTP Labtech) and the plate was incubated at 37° C. for 2 or 24 hours. Assay plate was brought to room temperature then 5 μL per well of Live Cell Substrate (Promega) was added to the plate. Luminescence was measured on an Envision (Perkin Elmer).
The average DMSO was calculated from 32 wells containing 0.1% DMSO only in columns 12 and 24 of the assay plate. The % of DMSO values were calculated as described below: […]
The % of DMSO values were plotted as a function of compound concentration and the following 4-parameter fit was applied to derive the DC50 values:
where top, bottom, and Hill Coefficient are allowed to float. Y is the % of DMSO and X is the compound concentration.
DC50 data for the Example compounds is provided below in Table 2 (“+” is <0.03 μM; “++” is ≥0.03 μM).

T1 sequence (Q460N5 whole entry): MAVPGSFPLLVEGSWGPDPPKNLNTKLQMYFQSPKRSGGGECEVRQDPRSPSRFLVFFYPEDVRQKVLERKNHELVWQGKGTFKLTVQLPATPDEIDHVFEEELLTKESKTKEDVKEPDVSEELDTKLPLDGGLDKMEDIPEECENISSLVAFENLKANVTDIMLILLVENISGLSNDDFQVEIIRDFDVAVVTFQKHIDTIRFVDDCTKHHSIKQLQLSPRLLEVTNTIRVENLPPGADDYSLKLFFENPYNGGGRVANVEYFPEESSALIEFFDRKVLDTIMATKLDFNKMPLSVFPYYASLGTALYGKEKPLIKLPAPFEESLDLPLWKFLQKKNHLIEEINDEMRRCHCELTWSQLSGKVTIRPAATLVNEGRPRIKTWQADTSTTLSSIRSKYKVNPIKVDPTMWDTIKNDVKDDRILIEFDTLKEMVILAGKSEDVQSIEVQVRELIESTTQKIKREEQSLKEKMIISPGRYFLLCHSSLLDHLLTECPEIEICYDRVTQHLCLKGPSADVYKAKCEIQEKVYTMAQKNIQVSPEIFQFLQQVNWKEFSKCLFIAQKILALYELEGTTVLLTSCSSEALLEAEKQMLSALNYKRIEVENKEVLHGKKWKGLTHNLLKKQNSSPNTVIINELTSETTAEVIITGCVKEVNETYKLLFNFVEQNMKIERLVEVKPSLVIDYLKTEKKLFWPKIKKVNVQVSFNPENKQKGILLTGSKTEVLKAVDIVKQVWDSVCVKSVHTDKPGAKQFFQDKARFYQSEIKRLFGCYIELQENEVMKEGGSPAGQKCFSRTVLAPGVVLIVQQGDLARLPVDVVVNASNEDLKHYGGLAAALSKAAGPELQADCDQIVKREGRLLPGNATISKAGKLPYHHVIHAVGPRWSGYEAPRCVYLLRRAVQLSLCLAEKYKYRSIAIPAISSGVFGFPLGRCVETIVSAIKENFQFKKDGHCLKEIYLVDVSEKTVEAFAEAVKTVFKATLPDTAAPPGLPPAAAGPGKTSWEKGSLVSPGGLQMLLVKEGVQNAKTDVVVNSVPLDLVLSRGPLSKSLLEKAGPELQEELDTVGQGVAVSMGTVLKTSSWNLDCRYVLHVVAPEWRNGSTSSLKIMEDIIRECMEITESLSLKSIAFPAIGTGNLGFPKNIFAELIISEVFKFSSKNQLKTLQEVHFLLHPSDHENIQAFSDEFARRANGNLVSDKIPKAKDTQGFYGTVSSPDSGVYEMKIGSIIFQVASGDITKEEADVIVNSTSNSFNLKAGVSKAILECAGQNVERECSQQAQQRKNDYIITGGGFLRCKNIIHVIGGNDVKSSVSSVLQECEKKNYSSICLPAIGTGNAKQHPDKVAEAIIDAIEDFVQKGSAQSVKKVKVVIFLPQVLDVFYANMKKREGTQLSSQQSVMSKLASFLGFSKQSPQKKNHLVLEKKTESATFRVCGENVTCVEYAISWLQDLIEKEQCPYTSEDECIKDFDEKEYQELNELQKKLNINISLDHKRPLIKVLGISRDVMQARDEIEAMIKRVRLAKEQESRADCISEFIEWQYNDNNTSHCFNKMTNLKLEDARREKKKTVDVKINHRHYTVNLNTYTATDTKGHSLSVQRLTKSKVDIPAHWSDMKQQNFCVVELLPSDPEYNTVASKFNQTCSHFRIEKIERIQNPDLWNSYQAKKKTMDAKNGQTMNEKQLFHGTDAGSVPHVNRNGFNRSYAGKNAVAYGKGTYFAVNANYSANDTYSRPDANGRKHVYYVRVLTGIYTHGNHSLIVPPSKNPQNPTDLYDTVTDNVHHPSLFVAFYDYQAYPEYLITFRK

DC50, < 30 nM:
O=C1CCC(N2C(=O)c3cccc4c(N5CCN(CCN6CCC(SCc7nc8cc(OCC9CC9)cc(F)c8c(=O)[nH]7)CC6)CC5)ccc2c34)C(=O)N1 (stereo not shown) [Example 49, 3-(6-(4-(2-(4-(((7-(cyclopropylmethoxy)-5-fluoro-4-oxo-3,4-dihydroquinazolin-2-yl)methyl)thio)piperidin-1-yl)ethyl)piperazin-1-yl)-2-oxobenzo[cd]indol-1(2H)-yl)piperidine-2,6-dione]
O=C1CCC(N2Cc3cc(N4CCC(CN5CCC(SCc6nc7cc(OCC8CC8)cc(F)c7c(=O)[nH]6)CC5)CC4)ccc3C2=O)C(=O)N1 (stereo not shown) [Example 50, 3-(5-(4-((4-(((7-(cyclopropylmethoxy)-5-fluoro-4-oxo-3,4-dihydroquinazolin-2-yl)methyl)thio)piperidin-1-yl)methyl)piperidin-1-yl)-1-oxoisoindolin-2-yl)piperidine-2,6-dione]
O=C1CCC(Nc2ccc(N3CCC(N4CC(N5CCC(SCc6nc7cc(OCC8CCOCC8)cc(F)c7c(=O)[nH]6)CC5)C4)CC3)c(F)c2)C(=O)N1 (stereo not shown) [Example 51, 3-((3-fluoro-4-(4-(3-(4-(((5-fluoro-4-oxo-7-((tetrahydro-2H-pyran-4-yl)methoxy)-3,4-dihydroquinazolin-2-yl)methyl)thio)piperidin-1-yl)azetidin-1-yl)piperidin-1-yl)phenyl)amino)piperidine-2,6-dione formate]
O=C1CCC(Nc2ccc(N3CCC(N4CCC(SCc5nc6cc(OCC7CCOCC7)cc(F)c6c(=O)[nH]5)CC4)CC3)c(F)c2)C(=O)N1 (stereo not shown) [Example 52, 3-((3-fluoro-4-(4-(((5-fluoro-4-oxo-7-((tetrahydro-2H-pyran-4-yl)methoxy)-3,4-dihydroquinazolin-2-yl)methyl)thio)-[1,4′-bipiperidin]-1′-yl)phenyl)amino)piperidine-2,6-dione]
O=C1CCC(Nc2ccc(N3CCC(N4CCC(OCc5nc6cc(OCC7CC7)cc(F)c6c(=O)[nH]5)CC4)CC3)c(F)c2)C(=O)N1 (stereo not shown) [Example 53, 3-((4-(4-((7-(cyclopropylmethoxy)-5-fluoro-4-oxo-3,4-dihydroquinazolin-2-yl)methoxy)-[1,4′-bipiperidin]-1′-yl)-3-fluorophenyl)amino)piperidine-2,6-dione]
O=C1CCC(Nc2ccc(N3CCC(N4CCC(SCc5nc6cc(OCC7CC7)cc(F)c6c(=O)[nH]5)CC4)CC3)c(F)c2)C(=O)N1 (stereo not shown) [Example 54, 3-((4-(4-(((7-(cyclopropylmethoxy)-5-fluoro-4-oxo-3,4-dihydroquinazolin-2-yl)methyl)thio)-[1,4′-bipiperidin]-1′-yl)-3-fluorophenyl)amino)piperidine-2,6-dione formate]
O=C1CCC(Nc2ccc(N3CCN(CCO[C@H]4CC[C@H](SCc5nc6cc(OCC7CC7)cc(F)c6c(=O)[nH]5)CC4)CC3)c(F)c2)C(=O)N1 (stereo partly shown) [Example 55, 3-((4-(4-(2-(((1r,4r)-4-(((7-(cyclopropylmethoxy)-5-fluoro-4-oxo-3,4-dihydroquinazolin-2-yl)methyl)thio)cyclohexyl)oxy)ethyl)piperazin-1-yl)-3-fluorophenyl)amino)piperidine-2,6-dione]
O=C1CCC(Nc2ccc(N3CCC(CN4CCC(SCc5nc6cc(OCC7CC7)cc(F)c6c(=O)[nH]5)CC4)CC3)c(F)c2)C(=O)N1 (stereo not shown) [Example 56, 3-((4-(4-((4-(((7-(cyclopropylmethoxy)-5-fluoro-4-oxo-3,4-dihydroquinazolin-2-yl)methyl)thio)piperidin-1-yl)methyl)piperidin-1-yl)-3-fluorophenyl)amino)piperidine-2,6-dione formate]
O=C1CCC(Nc2ccc(N3CCC(N4CCC(SCc5nc6cc(OCC7CC7)cc(F)c6c(=O)[nH]5)CC4)CC3)c(C(F)(F)F)c2)C(=O)N1 (stereo not shown) [Example 57, 3-((4-(4-(((7-(cyclopropylmethoxy)-5-fluoro-4-oxo-3,4-dihydroquinazolin-2-yl)methyl)thio)-[1,4′-bipiperidin]-1′-yl)-3-(trifluoromethyl)phenyl)amino)piperidine-2,6-dione]
O=C1CCC(Nc2cc(F)c(N3CCC(N4CCC(SCc5nc6cc(OCC7CC7)cc(F)c6c(=O)[nH]5)CC4)CC3)cc2F)C(=O)N1 (stereo not shown) [Example 58, 3-((4-(4-(((7-(cyclopropylmethoxy)-5-fluoro-4-oxo-3,4-dihydroquinazolin-2-yl)methyl)thio)-[1,4′-bipiperidin]-1′-yl)-2,5-difluorophenyl)amino)piperidine-2,6-dione]
O=C1CCC(Nc2ccc(N3CCC(N4CCC(SCc5nc6cc(OCC7CC7)cc(F)c6c(=O)[nH]5)CC4)C3)c(F)c2)C(=O)N1 (stereo not shown) [Example 59, 3-((4-(3-(4-(((7-(cyclopropylmethoxy)-5-fluoro-4-oxo-3,4-dihydroquinazolin-2-yl)methyl)thio)piperidin-1-yl)pyrrolidin-1-yl)-3-fluorophenyl)amino)piperidine-2,6-dione]
O=C1CCN(c2ccc(N3CCC(N4CCC(SCc5nc6cc(OCC7CC7)cc(F)c6c(=O)[nH]5)CC4)CC3)c(F)c2)C(=O)N1 [Example 60, 1-(4-(4-(((7-(cyclopropylmethoxy)-5-fluoro-4-oxo-3,4-dihydroquinazolin-2-yl)methyl)thio)-[1,4′-bipiperidin]-1′-yl)-3-fluorophenyl)dihydropyrimidine-2,4(1H,3H)-dione]
Cn1nc(N2CCC(=O)NC2=O)c2ccc(N3CCC(N4CCC(SCc5nc6cc(OCC7CC7)cc(F)c6c(=O)[nH]5)CC4)CC3)cc21 [Example 61, 1-(6-(4-(((7-(cyclopropylmethoxy)-5-fluoro-4-oxo-3,4-dihydroquinazolin-2-yl)methyl)thio)-[1,4′-bipiperidin]-1′-yl)-1-methyl-1H-indazol-3-yl)dihydropyrimidine-2,4(1H,3H)-dione]
O=C1CCN(c2cncc3c(N4CCC(N5CCC(SCc6nc7cc(OCC8CC8)cc(F)c7c(=O)[nH]6)CC5)CC4)cccc23)C(=O)N1 [Example 62, 1-(8-(4-(((7-(cyclopropylmethoxy)-5-fluoro-4-oxo-3,4-dihydroquinazolin-2-yl)methyl)thio)-[1,4′-bipiperidin]-1′-yl)isoquinolin-4-yl)dihydropyrimidine-2,4(1H,3H)-dione]
O=C1CCC(Nc2ccc(N3CCC(N4CCN(CCc5nc6cc(OCC7CC7)cc(F)c6c(=O)[nH]5)CC4)CC3)c(F)c2)C(=O)N1 (stereo not shown) [Example 63, 3-((4-(4-(4-(2-(7-(cyclopropylmethoxy)-5-fluoro-4-oxo-3,4-dihydroquinazolin-2-yl)ethyl)piperazin-1-yl)piperidin-1-yl)-3-fluorophenyl)amino)piperidine-2,6-dione formic salt]
O=C1CCC(Nc2ccc(N3CCC(C4CCN(CCc5nc6cc(OCC7CC7)cc(F)c6c(=O)[nH]5)CC4)CC3)c(F)c2)C(=O)N1 (stereo not shown) [Example 64, 3-((4-(1′-(2-(7-(cyclopropylmethoxy)-5-fluoro-4-oxo-3,4-dihydroquinazolin-2-yl)ethyl)-[4,4′-bipiperidin]-1-yl)-3-fluorophenyl)amino)piperidine-2,6-dione]
O=C1CCC(Nc2ccc(N3CCC(N4CCC(CCc5nc6cc(OCC7CC7)cc(F)c6c(=O)[nH]5)CC4)CC3)c(F)c2)C(=O)N1 (stereo not shown) [Example 65, 3-((4-(4-(2-(7-(cyclopropylmethoxy)-5-fluoro-4-oxo-3,4-dihydroquinazolin-2-yl)ethyl)-[1,4′-bipiperidin]-1′-yl)-3-fluorophenyl)amino)piperidine-2,6-dione]
O=C1CCC(Nc2ccc(N3CC(N4CCC(SCc5nc6cc(OCC7CC7)cc(F)c6c(=O)[nH]5)CC4)C3)c(F)c2)C(=O)N1 (stereo not shown) [Example 66, 3-((4-(3-(4-(((7-(cyclopropylmethoxy)-5-fluoro-4-oxo-3,4-dihydroquinazolin-2-yl)methyl)thio)piperidin-1-yl)azetidin-1-yl)-3-fluorophenyl)amino)piperidine-2,6-dione]
O=C1CCC(Nc2ccc(N3CCC(N4CCC(SCc5nc6cc(C#CC7CC7)cc(F)c6c(=O)[nH]5)CC4)CC3)c(F)c2)C(=O)N1 (stereo not shown) [Example 67, 3-((4-(4-(((7-(cyclopropylethynyl)-5-fluoro-4-oxo-3,4-dihydroquinazolin-2-yl)methyl)thio)-[1,4′-bipiperidin]-1′-yl)-3-fluorophenyl)amino)piperidine-2,6-dione formate]
